Assay results published in patent US11795152B2, “Crystal form of tafamidis and preparation method therefor and use thereof” (CRYSTAL PHARMACEUTICAL (SUZHOU) CO., LTD., priority 2019, dated 2023).

Experiments:
Assay type in all cases: physicochemical
[1] = Dissolution profile of tablets in pH6.8 PBS+1% Tween 80; conditions: tablet 61 mg, paddle 75 rpm, 37° C.
Experimental: The cumulative dissolution was measured at different time in pH6.8 PBS+1% Tween 80 and pH6.8 PBS+3% Tween 80. The dissolution results are presented in Table 24 (FIG. 23) and Table 25 (FIG. 24).
The cumulative dissolution was measured at different time in pH6.8 PBS+1% Tween 80.

[2] = Adhesiveness (material sticking to the punch); conditions: 30 mg, φ8 mm round tooling, 10 KN held for 30 s
Experimental: The punch was weighed and amount of material sticking to the punch was calculated. The compression was repeated twice and the cumulative amount, maximum amount and average amount of material sticking to the punch during the compression were recorded.

[3] = Compressibility (manual tablet press, tensile strength); conditions: 80 mg, φ6 mm round tooling, 10 KN
Experimental: An ENERPAC manual tablet press was used for tableting. […] Diameter (D) and thickness (L) were tested with a caliper. Hardness (H) was tested with an intelligent tablet hardness tester. Tensile strength of the powder was calculated with the following formula: T=2H/πDL*9.8. Under a certain force, the greater the tensile strength, the better the compressibility.
Diameter (D) and thickness (L) were tested with a caliper. Hardness (H) was tested with an intelligent tablet hardness tester. Tensile strength of the powder was calculated with the following formula: T=2H/πDL*9.8. Under a certain force, the greater the tensile strength, the better the compressibility.

[4] = Stability of drug substance on storage (XRPD, HPLC purity); conditions: for chemical purity during storage: drug substance
Description: Crystalline form and chemical impurity were checked by XRPD and HPLC, respectively.
Crystalline form and purity were checked by XRPD and HPLC, respectively.

[5] = Stability of Form CSVII drug product on storage; conditions: 30° C./60% RH
[6] = Hygroscopicity by dynamic vapor sorption (DVS); conditions: 80% RH, 25° C., DVS
Experimental: Dynamic Vapor Sorption (DVS) is measured via a SMS (Surface Measurement Systems Ltd.) intrinsic DVS instrument. Its control software is DVS-Intrinsic control software. Typical parameters for DVS tests are as follows:
Gas and flow rate: N2, 200 mL/min
RH range: 0% RH to 95% RH
The weight gains at each relative humidity were recorded in a cycle of 0-95%-0 RH. The XRPD patterns were collected before and after the DVS test and depicted in FIG. 11.
Description and definition of hygroscopicity (general notice 9103 drug hygroscopicity test guidelines in 2015 edition of Chinese Pharmacopoeia, test at 25° C.+/−1° C., 80% RH. The definition of hygroscopicity in the 9th European Pharmacopoeia 5.11 is in consistent with the Chinese Pharmacopoeia.). • deliquescent: sufficient water is absorbed to form a solution. • very hygroscopic: increase in mass is equal to or greater than 15 percent. • hygroscopic: increase in mass is less than 15 percent and equal to or greater than 2 percent. • slightly hygroscopic: increase in mass is less than 2 percent and equal to or greater than 0.2 percent. • non hygroscopic or almost non hygroscopic: Increase in mass is less than 0.2%.
The weight gains at each relative humidity were recorded in a cycle of 0-95%-0RH. The XRPD patterns were collected before and after the DVS test and depicted in FIG. 22. […] Form CSVI is slightly hygroscopic.
The weight gains at each relative humidity were recorded in a cycle of 0-95%-0RH. The XRPD patterns were collected before and after the DVS test and depicted in FIG. 31.

[7] = 40° C./75% RH, Sealed, 3 months
[8] = 60° C./75% RH, Sealed, 2 months

- Cumulative drug release in pH 6.8 PBS + 1% Tween 80 (%) ([1]; 0 min): 0.0%
- Cumulative drug release in pH 6.8 PBS + 1% Tween 80 (%) ([1]; 5 min): 9.3%
- Cumulative drug release in pH 6.8 PBS + 1% Tween 80 (%) ([1]; 10 min): 15.2%
- Cumulative drug release in pH 6.8 PBS + 1% Tween 80 (%) ([1]; 15 min): 19.7%
- Cumulative drug release in pH 6.8 PBS + 1% Tween 80 (%) ([1]; 20 min): 23.5%
- Cumulative drug release in pH 6.8 PBS + 1% Tween 80 (%) ([1]; 30 min): 29.8%
- Cumulative drug release in pH 6.8 PBS + 1% Tween 80 (%) ([1]; 45 min): 37.4%
- Cumulative drug release in pH 6.8 PBS + 1% Tween 80 (%) ([1]; 60 min): 43.7%
- Cumulative drug release in pH 6.8 PBS + 1% Tween 80 (%) ([1]; 90 min): 52.8%
- Cumulative drug release in pH 6.8 PBS + 1% Tween 80 (%) ([1]; 120 min): 60.1%
- Cumulative drug release in pH 6.8 PBS + 1% Tween 80 (%) ([1]; 150 min): 68.3%
- Average amount (mg) of material sticking to the punch [2]: 0.200 mg
- Hardness ([3]; 24 hours recovery): 7.45 kgf
- Tensile strength ([3]; T=2H/πDL*9.8): 4.02 MPa
- Purity ([4]; 25° C./60% RH, Open, 3 months): 99.92%
- Solid Form ([4]; 25° C./60% RH, Open, 3 months): Form CSVII
- Purity ([4]; 40° C./75% RH, Open, 3 months): 99.92%
- Solid Form ([4]; 40° C./75% RH, Open, 3 months): Form CSVII
- Purity [4, 7]: 99.92%
- Solid Form [4, 7]: Form CSVII
- Purity [4, 8]: 99.93%
- Solid Form [4, 8]: Form CSVII
- Purity ([4]; Initial): 99.93%
- Solid Form ([4]; Initial): Form CSVII
- chemical purity during storage ([4]; 25° C./60% RH): above 99.9%
- chemical purity during storage ([4]; 40° C./75% RH and 60° C./75% RH): above 99.9%
- time for which crystalline state of drug product doesn't change [5]: at least three months
- Weight gain [6]: 0.04%
Structure (SMILES): O=C(O)CCCCC(=O)O.O=C(O)c1ccc2nc(-c3cc(Cl)cc(Cl)c3)oc2c1.O=C(O)c1ccc2nc(-c3cc(Cl)cc(Cl)c3)oc2c1 [Form CSVII]
